Source: patent US8435538B2, “Anti-atheroma vaccine” (Thrombosis Research Institute, priority 2008, dated 2013)
Several values for one entry are separate records, joined by “and”; a condition that tells them apart may be missing. Equal entries are not always repeated. Ends that are not written are not given here.

Columns and labels:
ApoB1 peptide = experiment: Peptide-specific antibody response in sera by ELISA after immunization with KLH conjugates, antigen ApoB1 peptide; format: in vivo, mice
Text: (§1) Apob^tm2SgyLdlr^tm1Her/J mice were immunized with combinations of ApoB and hHSP epitopes conjugated to keyhole limpet hemocyanin (KLH) as a carrier protein. The peptides were given either in combination, as a bi-specific immunogen, or in a single form, together with complete/incomplete Freund's adjuvant. Mice were fed with high-fat diet for 7 weeks then sacrificed. Peptide-specific antibody responses were detected in the sera by ELISA.

[1] = system: Apob^tm2SgyLdlr^tm1Her/J mice; experiment: Histological analysis of atherosclerotic lesions in the aortic sinus of immunized mice; format: in vivo
Text: LDL receptor-deficient mice expressing ApoB-100 were immunized with a combination of two peptides derived from ApoB1 ([…], SEQ ID NO:25) and hHSP60 (AELKKQSKPVT, SEQ ID NO:26).
as §1
The lesions were 14.66% smaller following immunization with ApoB1 peptide alone (FIG. 5B), and 21.15% smaller after immunization with hHSP60 peptide alone (FIG. 5C) than in control mice.

[2] = system: macrophages (CD68+ cells); experiment: Infiltration of macrophages into atherosclerotic lesions, anti-CD68 staining; format: in vivo; conditions: compared with mice immunized with either HSP60 or apoB1 alone; FIG. 6
Text: Infiltration of macrophages into atherosclerotic lesions in the Apob^tm2SgyLdlr^tm1Her/J mice were quantified by staining with anti-CD68. Sections of the tissue sample (5 μm thick) were stained with hematoxylin-eosin (H.E.) and examined under a light microscope. Macrophage levels were compared in a sample obtained from mice immunized with adjuvant only (control), mice immunized with ApoB only, mice immunized with hHSP60 only and mice immunized with the bi-specific ApoB1+hHSP60 immunogen.

hHSP60 peptide = experiment: Peptide-specific antibody response in sera by ELISA after immunization with KLH conjugates, antigen hHSP60 peptide; format: in vivo, mice
Text: as §1

[3] = system: Apob^tm2Sgy Ldlr^tm1Her/J KO-mice; experiment: RIMMS immunization, serum IgG titre by ELISA, KO-mouse model; format: in vivo; conditions: titre = highest serum dilution giving OD (450 nm) ≧1
Procedure: The ability of the recombinant immunogens to generate an immune response in BALB/C mice models, C57/BL6 mice models and Apob^tm2Sgy Ldlr^tm1Her/J KO-mice models. Mice were immunized using a repetitive, multiple site immunization strategy (RIMMS). Groups of 10 of 6-8-week-old BALB/c mice were inoculated with 4 μg of recombinant immunogen mixed with Freund's adjuvant 5 times respectively. The immunization was carried out subcutaneously into 8 sites on days 0, 2, 5, 7 and 9. On day 12 and 21 blood sample will be collected to test the antibody response. […]
Serum samples of immunized and naïve mice were tested for IgG antibodies using OD values at a dilution of 1:100 (or 200) on ELISA plates coated with antigens. Cut-off value for positivity was calculated as mean OD of naïve mouse sera+3×SD. Serum samples showing higher OD on antigen than on control antigen are considered positive, the other is determined by the highest dilution of serum giving an OD reading (at 450 nm)≧1. In this regard, titre can be assessed as non-immunoreactivity (<200), low immunoreactivity (200≦titre<800), good immunoreactivity (800≦titre<3200) and very good immunoreactivity ((titre 3200)

With “ApoB1 + hHSP60-KLH: combination of ApoB1 and hHSP60 peptides conjugated to KLH, bi-specific immunogen (chain 1 IEIGLEGKGFEPTLEALFGK; chain 2 AELKKQSKPVT; also: peptides conjugated to KLH; listed as Homo sapiens)” the “OD at 1:100 serum dilution, ELISA antigen ApoB1 peptide, Mean” value (ApoB1 peptide; Week 8, group mean) was 1.333, the “OD at 1:100 serum dilution, ELISA antigen ApoB1 peptide” value (ApoB1 peptide; Week 8, individual mouse) was 1.227 and 1.546 and 1.449 and 1.437 and 1.142 and 1.229 and 1.303 and the “protection from progression of atherosclerotic lesion” value ([1]; LDL receptor-deficient mice expressing ApoB-100) was “synergistic protection”. For the same substance, the “atherosclerotic lesions in the aortic sinus smaller in size than in control mice” value ([1]; vs adjuvant control, high-fat diet for 7 weeks) was 41.34%, the “number of macrophages (CD68+ cells) found within lesions of atherosclerosis” value [2] was “fewer” and the “OD at 1:100 serum dilution, ELISA antigen hHSP60 peptide, Mean” value (hHSP60 peptide; Week 8, group mean) was 1.366. For the same substance, the “OD at 1:100 serum dilution, ELISA antigen hHSP60 peptide” value (hHSP60 peptide; Week 8, individual mouse) was 1.368 and 1.405 and 1.556 and 1.282 and 1.215 and 1.338 and 1.396 and the “Immune response on KO- mouse model” value [3] was “Very Good (very good immunoreactivity ((titre 3200))”.
